Test results reported in ChEMBL document CHEMBL1133572, “Protease inhibitors: current status and future prospects” (J Med Chem, 2000).
Converted amounts (≈) assume the structure as drawn. Residues, ends and D or L forms follow the SMILES beside them. *: point of attachment. Cbz = O=C(OCc1ccccc1)*; CF3 = FC(F)(F)*; Moc = COC(=O)*

Tests used:
[1] = oral bioavailability in Hamsters; type: ADME, organism-based; conditions: cricetinae, in vivo, read-out: Bioavailabiility
[2] = The in vivo activity ED50 (iv); type: functional
[3] = The in vivo activity ED50 (oral); type: functional
Neutrophil elastase = Neutrophil elastase (Homo sapiens, UniProt P08246)
Tryptase [4] = molecular target: T1, Tryptase (Homo sapiens, UniProt Q9BZJ3+Q15661+Q9NRR2); experiment: The compound was tested for the zinc mediated inhibition.; type: protein assay
Tryptase [5] = molecular target: T1, Tryptase; experiment: zinc mediated inhibition in the presence of metal chelating agent EDTA.; type: protein assay
Cathepsin B [6] = molecular target: T2, Cathepsin B (Homo sapiens, UniProt P07858); experiment: Inhibitory activity against cathepsin B (ip); type: organism-based
Cathepsin B [7] = molecular target: T2, Cathepsin B; experiment: Inhibitory activity against cathepsin B (po); type: organism-based
Cathepsin B [8] = molecular target: T2, Cathepsin B; experiment: Inhibitory activity against cathepsin B (sc); type: organism-based
[9] = The irreversible inhibitor activity by second order rate equation.; type: ADME
[10] = molecular target: T3, Human rhinovirus A protease (Human rhinovirus sp., UniProt Q4U254)
T3 sequence (Q4U254 whole entry): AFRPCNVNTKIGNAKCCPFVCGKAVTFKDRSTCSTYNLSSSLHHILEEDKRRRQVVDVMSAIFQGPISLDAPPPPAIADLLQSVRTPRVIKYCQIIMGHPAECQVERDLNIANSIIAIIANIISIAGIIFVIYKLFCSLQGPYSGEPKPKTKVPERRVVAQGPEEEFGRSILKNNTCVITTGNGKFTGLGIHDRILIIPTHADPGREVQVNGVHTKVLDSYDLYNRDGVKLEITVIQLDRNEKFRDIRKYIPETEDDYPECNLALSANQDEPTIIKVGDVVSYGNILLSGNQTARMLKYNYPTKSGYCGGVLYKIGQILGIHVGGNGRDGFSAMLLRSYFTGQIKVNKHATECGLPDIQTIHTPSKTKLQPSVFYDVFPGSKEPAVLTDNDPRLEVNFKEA

[11] = molecular target: T4, Human rhinovirus A protease (Human rhinovirus sp.) (UniProt Q4U254)
T4 sequence (whole entry): T3 sequence (Q4U254 whole entry)

[12] = cytotoxicity against HIV protease enzyme.; type: organism-based; conditions: human immunodeficiency virus, in vivo
[13] = Cmax value at the period of 0-24 h after dosing.; type: ADME, organism-based; conditions: in vivo
[14] = Bioavailability in rat; type: ADME, organism-based; conditions: in vivo
[15] = Plasma half life of the compound; type: ADME, cell-free
[16] = system: Human immunodeficiency virus 1; experiment: (§1) Antiviral activity against HIV-1 protease; type: functional, organism-based
[17] = system: Human immunodeficiency virus; experiment: as §1; type: functional, organism-based; conditions: Human immunodeficiency virus 1
[18] = molecular target: HIV-1 protease (Human immunodeficiency virus 1); experiment: Binding affinity against HIV-1 protease.
[19] = The effective dose required for 50% inhibition of elastase.; type: functional
[20] = Inhibitory concentration against Chymotrypsinogen
[21] = Inhibitory concentration against Elastase
Plasminogen = Plasminogen (Rattus norvegicus, UniProt Q01177); experiment: Inhibitory concentration against Plasmin
Serine protease 1 = Serine protease 1 (Homo sapiens, UniProt P07477); experiment: Inhibitory concentration against Trypsin
[22] = Oral bioavailability in human; type: ADME, organism-based; conditions: in vivo
Renin = molecular target: T5, Renin (Homo sapiens, UniProt P00797)
T5 sequence (P00797 whole entry): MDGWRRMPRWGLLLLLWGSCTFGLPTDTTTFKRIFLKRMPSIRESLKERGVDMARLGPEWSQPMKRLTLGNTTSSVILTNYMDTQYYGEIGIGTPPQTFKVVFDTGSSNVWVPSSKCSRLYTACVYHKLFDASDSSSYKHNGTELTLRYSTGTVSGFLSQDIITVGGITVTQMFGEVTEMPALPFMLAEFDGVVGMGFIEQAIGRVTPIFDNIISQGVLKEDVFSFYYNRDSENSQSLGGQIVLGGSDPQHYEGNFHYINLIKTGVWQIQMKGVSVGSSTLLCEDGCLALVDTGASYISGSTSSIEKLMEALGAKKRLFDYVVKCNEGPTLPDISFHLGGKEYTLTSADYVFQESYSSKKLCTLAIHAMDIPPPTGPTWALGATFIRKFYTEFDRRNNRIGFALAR

Caspase-1 [23] = molecular target: T6, Caspase-1 (Homo sapiens, UniProt P29466)
T6 sequence (P29466 whole entry): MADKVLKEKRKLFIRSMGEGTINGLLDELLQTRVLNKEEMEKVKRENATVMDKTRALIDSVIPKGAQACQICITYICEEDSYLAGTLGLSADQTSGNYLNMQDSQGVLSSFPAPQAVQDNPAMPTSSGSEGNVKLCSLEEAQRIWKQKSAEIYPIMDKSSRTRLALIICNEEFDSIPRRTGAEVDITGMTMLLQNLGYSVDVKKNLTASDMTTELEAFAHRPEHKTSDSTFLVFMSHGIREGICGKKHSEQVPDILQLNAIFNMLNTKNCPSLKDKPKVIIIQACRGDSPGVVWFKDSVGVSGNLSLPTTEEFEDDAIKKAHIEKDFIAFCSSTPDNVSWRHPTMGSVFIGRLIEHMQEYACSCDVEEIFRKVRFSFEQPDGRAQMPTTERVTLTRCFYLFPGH

[24] = oral bioavailability in standard iv / po dogs; type: ADME, organism-based, Canis lupus familiaris; conditions: dog, in vivo, read-out: Bioavailabiility
Caspase-1 [25] = molecular target: T6, Caspase-1; experiment: The binding affinity against IL-1 beta converting enzyme
Cathepsin B [26] = molecular target: T2, Cathepsin B; experiment: Inhibitory activity against Cathepsin B
[27] = molecular target: Calpain-2 catalytic subunit (Homo sapiens, UniProt P17655); experiment: Inhibitory activity against Calpain 2
[28] = Inhibitory activity against alpha Chymotrypsinogen
Procathepsin L = Procathepsin L (Homo sapiens, UniProt P07711); experiment: Inhibitory activity against cathepsin L, lysosomal cysteine protease
Procathepsin L, sequence (P07711 whole entry): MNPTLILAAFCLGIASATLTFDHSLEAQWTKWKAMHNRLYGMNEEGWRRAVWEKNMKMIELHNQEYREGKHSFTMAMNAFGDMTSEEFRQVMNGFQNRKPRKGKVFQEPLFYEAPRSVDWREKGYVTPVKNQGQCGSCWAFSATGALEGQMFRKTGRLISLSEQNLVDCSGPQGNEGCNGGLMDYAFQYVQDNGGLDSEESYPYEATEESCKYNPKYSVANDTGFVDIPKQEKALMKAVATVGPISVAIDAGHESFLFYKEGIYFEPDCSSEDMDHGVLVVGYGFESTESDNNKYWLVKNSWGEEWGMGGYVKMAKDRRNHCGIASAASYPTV

Calpain-2 catalytic subunit, sequence (P17655 whole entry): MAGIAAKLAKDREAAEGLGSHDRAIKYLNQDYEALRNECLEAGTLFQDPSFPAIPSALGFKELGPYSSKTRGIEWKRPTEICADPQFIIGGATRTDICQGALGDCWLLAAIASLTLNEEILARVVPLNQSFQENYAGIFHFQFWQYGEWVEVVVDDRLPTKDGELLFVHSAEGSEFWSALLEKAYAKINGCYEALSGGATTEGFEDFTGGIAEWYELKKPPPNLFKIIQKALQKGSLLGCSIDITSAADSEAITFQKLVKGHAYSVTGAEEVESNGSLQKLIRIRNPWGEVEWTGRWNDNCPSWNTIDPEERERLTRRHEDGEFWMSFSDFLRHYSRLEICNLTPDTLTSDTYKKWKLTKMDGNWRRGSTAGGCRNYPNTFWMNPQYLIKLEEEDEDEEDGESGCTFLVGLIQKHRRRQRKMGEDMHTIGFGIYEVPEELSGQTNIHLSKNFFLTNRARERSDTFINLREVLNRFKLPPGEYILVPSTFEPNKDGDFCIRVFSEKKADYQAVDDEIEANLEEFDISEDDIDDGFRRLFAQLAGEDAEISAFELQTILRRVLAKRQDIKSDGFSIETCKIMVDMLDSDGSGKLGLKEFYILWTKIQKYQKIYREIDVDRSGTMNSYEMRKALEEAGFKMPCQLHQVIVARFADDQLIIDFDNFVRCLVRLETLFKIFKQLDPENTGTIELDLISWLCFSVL
Neutrophil elastase, sequence (P08246 whole entry): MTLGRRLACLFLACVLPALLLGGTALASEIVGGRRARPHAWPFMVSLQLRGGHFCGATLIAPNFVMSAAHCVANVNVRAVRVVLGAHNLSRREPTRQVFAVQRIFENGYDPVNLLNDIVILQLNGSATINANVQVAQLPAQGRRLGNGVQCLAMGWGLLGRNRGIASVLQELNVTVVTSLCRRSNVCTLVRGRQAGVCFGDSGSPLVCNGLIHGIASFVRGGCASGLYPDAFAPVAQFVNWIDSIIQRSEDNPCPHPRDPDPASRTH
Serine protease 1, sequence (P07477 whole entry): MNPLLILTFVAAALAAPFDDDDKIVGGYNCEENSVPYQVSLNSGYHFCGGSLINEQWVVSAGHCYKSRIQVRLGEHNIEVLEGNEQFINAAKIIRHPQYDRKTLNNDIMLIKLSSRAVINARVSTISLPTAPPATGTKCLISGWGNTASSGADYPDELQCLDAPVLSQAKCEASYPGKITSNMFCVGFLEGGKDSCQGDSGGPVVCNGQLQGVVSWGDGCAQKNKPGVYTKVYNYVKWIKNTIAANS
Plasminogen, sequence (Q01177 97-581 limits assumed): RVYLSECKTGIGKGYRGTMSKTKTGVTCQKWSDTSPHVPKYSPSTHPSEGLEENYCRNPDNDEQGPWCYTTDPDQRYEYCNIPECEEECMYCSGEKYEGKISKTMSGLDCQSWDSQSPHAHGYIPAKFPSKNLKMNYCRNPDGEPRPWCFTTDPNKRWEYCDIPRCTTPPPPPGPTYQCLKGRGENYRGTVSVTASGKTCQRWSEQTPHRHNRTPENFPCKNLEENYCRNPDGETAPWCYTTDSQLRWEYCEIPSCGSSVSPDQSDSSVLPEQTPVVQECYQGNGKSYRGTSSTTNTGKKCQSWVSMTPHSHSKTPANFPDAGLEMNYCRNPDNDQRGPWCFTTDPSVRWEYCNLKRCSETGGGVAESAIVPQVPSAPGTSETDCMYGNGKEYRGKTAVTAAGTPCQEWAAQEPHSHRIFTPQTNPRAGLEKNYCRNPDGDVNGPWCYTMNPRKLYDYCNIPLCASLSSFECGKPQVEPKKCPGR
Plasminogen, sequence (Q01177 582-812 limits assumed): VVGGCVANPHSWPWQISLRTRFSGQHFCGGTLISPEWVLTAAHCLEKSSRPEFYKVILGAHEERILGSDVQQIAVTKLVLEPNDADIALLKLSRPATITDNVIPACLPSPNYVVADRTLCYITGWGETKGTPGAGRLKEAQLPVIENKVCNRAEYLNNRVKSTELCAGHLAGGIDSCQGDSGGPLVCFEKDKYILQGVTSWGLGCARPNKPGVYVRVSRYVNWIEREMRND

COC(=O)N[C@H](C(=O)N1CCC[C@H]1C(=O)N[C@H](C(=O)C(F)(F)F)C(C)C)C(C)C (Moc-Val-Pro-Val-CF3)
bioavailability [1]: 75%
ED50 [2]: 0.51 mg/kg
ED50 [3]: 2 mg/kg

CC(SC(=O)c1cccs1)C(=O)NC1CCSC1 (stereo not drawn)
Ki (Neutrophil elastase): 1380 nM

N=C(N)c1ccc2nc(Cc3nc4ccc(C(=N)N)cc4[nH]3)[nH]c2c1.[Zn]
Ki (Tryptase [4]): 50 nM
Ki (Tryptase [5]): 2500 nM

Cc1cc(C)c(C(=O)OCC(=O)[C@H](CCCCN)NC(=O)[C@H](Cc2ccccc2)NC(=O)OCc2ccccc2)c(C)c1
ED50 (Cathepsin B [6]): 5 mg/kg
ED50 (Cathepsin B [7]): 18 mg/kg
ED50 (Cathepsin B [8]): 2.4 mg/kg

CC(C)C[C@H](NC(=O)[C@H]1O[C@@H]1C(=O)O)C(=O)N1CCC[C@H]1C(=O)OCc1ccccc1
K second [9]: 8.7 M⁻¹ s⁻¹

CC(C)C[C@H](NC(=O)OCc1ccccc1)C(=O)N[C@@H](Cc1ccccc1)C(=O)N[C@H](C=O)CCC(N)=O (Cbz-Leu-Phe-Gln-aldehyde)
EC50 [10]: 66000 nM
TC50 [11]: 398000 nM

CC(C)[C@H](NC(=O)c1ccc2ccccc2n1)C(=O)N[C@@H](Cc1ccccc1)[C@H](O)CN1CC[C@@H](OCc2ccncc2)C[C@H]1C(=O)NC(C)(C)C
CC50 [12]: 45000 nM
Cmax [13]: 1.6 uM l-1
bioavailability [14]: 37%
half-life [15]: 42 min
EC50 [16]: 28 nM
EC50 [17]: 30 nM
Ki [18]: 0.031 nM

CO[C@H]1C(=O)N2C(C(=O)N3CCC[C@H]3C(=O)O)=C(COC(C)=O)CS(=O)(=O)[C@H]12
ED50 [19]: 5 µg animal-1

CC(=O)OCCC/C(=C1/SC(=S)N(CC(=O)O)C1=O)c1ccc(Br)cc1
IC50 [20]: 15.6 µg/mL (≈ 34 µM)
IC50 [21]: > 50 µg/mL
IC50 (Plasminogen): > 109000 nM
IC50 (Serine protease 1): 39900 nM

CC(C)(C)S(=O)(=O)C[C@@H](Cc1ccccc1)C(=O)N[C@@H](Cc1cnc[nH]1)C(=O)N[C@@H](CC1CCCCC1)[C@@H](O)[C@@H](O)C1CC1
bioavailability [22]: 0.2%
Ki (Renin): 0.7 nM

CC(=O)N[C@@H](CC(=O)O)C(=O)N[C@H]1CCC[C@H]2SC[C@@H](C(=O)N[C@H]3CC(=O)OC3O)N2C1=O (stereo partly drawn)
IC50 (Caspase-1 [23]): 10400 nM

O=C[C@H](CC(=O)O)NC(=O)[C@@H]1CCCN2C(=O)CCC(NC(=O)c3ccccc3)C(=O)N12 (stereo partly drawn)
bioavailability [24]: 17%
Ki (Caspase-1 [25]): 5 nM

O=C[C@H](Cc1ccc(O)cc1)NC(=O)[C@H](Cc1ccccc1)NC(=O)OCc1ccccc1 (Cbz-Phe-Tyr-aldehyde)
IC50 (Cathepsin B [26]): 85.1 nM
IC50 [27]: 184 nM
IC50 [28]: > 1 µg/mL
IC50 (Procathepsin L): 0.85 nM
